Source: patent US20090186949A1, “Method for Treating Endothelial and Epithelial Cell Disorders by Administering High Molecular Weight PEG-Like Compounds” (THE UNIVERSITY OF CHICAGO, priority 2006, published 2009)
Entries after “also recorded” stand apart in the source; their conditions may differ. Like-named read-outs stand apart in the source and are kept apart here.

Key:
Endothelial cells [1] = system: Endothelial cells
[2] = system: PA-I lectin/adhesin expression in P. aeruginosa; format: cell-based, Pseudomonas aeruginosa
[3] = system: mice inoculated with PA27853; experiment: Mice with slow release morphine pellets drinking PA27853
[4] = system: intestinal epithelial cells; settings: 0.6% solution; cited from earlier work
[5] = system: P. aeruginosa PA27853/PLL-EGFP
Endothelial cells [6] = experiment: Pretreatment of endothelial cells followed by S1P or HMW PEG challenge (TEER); format: cell-based
[7] = system: P. aeruginosa (strain PAO1) whole cells and membrane fractions; format: binding, Pseudomonas aeruginosa
P. aeruginosa PAO1 = format: cell-based, Pseudomonas aeruginosa
[8] = target: protein on the surface of whole cells of P. aeruginosa (strain PAO1)
[9] = system: human lung microvessel endothelial cells (HLMVEC); experiment: Transendothelial electrical resistance (TEER) by ECIS, HMW PEG in serum-free EBM; format: cell-based
[10] = system: ERK and MLC phosphorylation; experiment: ERK and MLC phosphorylation by Western blot; format: cell-based, human; settings: 1 μM S1P, 5 minutes
HPAECs = experiment: Intracellular calcium (Fura-2); format: cell-based, human; settings: 1 U/ml thrombin; 1 μM S1P
Caco-2 cells = experiment: TEER of Caco-2 monolayers inoculated with PA27853 with IFN-γ; format: cell-based
Text: In addition, strains were exposed to apical media from Caco-2 cells basolaterally exposed to one or more of the various epithelial-derived cytokines. Basolateral exposure of Caco-2 cells to the combination of IFN γ and TNF α activates cellular signaling proteins that dramatically alter tight junctional proteins and function. Media from Caco-2 cells exposed to various combinations of these cytokines had no effect on PA-I expression. However, IFN-γ alone induced a direct effect on PA-I expression while none of the other compounds alone had any effect (FIG. 4). […] Using ELISA, immunofluorescence microscopy, and flow cytometry, the binding characteristics of IFNγ were determined for both whole bacteria and membrane fractions of P. aeruginosa. […] These effects were also observed with strain PAO1. […] This protein can also be immunoprecipitated from E. coli (FIG. 6C). Next, IFN-γ binding specificity to whole bacterial cells was determined using reiterative binding studies in the presence of various gram-negative bacterial strains, including P. aeruginosa. […] Finally, in order to determine if PA-I was functionally expressed in PA27853 in the presence IFN-γ, PA27853 was inoculated onto Caco-2 cell monolayers in the presence of IFN-γ and the effect on barrier dysregulating dynamics of PA27853 against this cell line were assessed to determine if IFN-γ shifted the dynamics. […]

OprF = target: T1, OprF (Pseudomonas aeruginosa, UniProt P13794); experiment: Binding of IFN-γ to purified OprF (ELISA); settings: dose-dependent
T1 sequence (P13794 25-350): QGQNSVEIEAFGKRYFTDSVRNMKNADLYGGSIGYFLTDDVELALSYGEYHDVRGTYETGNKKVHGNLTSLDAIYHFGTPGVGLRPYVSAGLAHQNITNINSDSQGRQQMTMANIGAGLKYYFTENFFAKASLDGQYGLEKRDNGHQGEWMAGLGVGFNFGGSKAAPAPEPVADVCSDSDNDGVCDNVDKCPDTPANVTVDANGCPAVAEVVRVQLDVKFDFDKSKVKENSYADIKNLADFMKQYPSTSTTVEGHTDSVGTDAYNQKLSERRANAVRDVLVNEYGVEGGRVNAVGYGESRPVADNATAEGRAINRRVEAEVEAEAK

[11] = system: rhlI / C4-HSL in P. aeruginosa PAO1; experiment: Quorum sensing activation (rhlI mRNA, C4-HSL in supernatants); format: cell-based, Pseudomonas aeruginosa
MDCK monolayers = experiment: Purified PA-I on epithelial monolayers (TEER, exotoxin A flux); format: cell-based

With “High Molecular Weight PolyEthylene Glycol [HMW PEG]” the “exotoxin A-induced cytotoxicity” value (Endothelial cells [1]) was “completely protected”.

With `CN1CC[C@]23c4c5ccc(O)c4O[C@H]2[C@@H](O)C=C[C@H]3[C@H]1C5` [morphine] the “increase in PA-I mRNA” value [2] was “four-fold increase”, the “increase in PA-I mRNA” value ([2]; PA27853, morphine 13 μM, quantitative RT-PCR) was 4 fold and the mortality ([3]; PA27853) was “significant mortality”. For the same molecule, the “mice developing severe sepsis” value ([3]; PA27853 1×10^8 cfu/ml daily) was 4/4.

For `OC[C@H]1O[C@H](OCC2O[C@@H](O)[C@H](O)[C@@H](O)[C@@H]2O)[C@H](O)[C@@H](O)[C@H]1O` (some centres unmarked) [mellibiose], the “adhesion of P. aeruginosa to intestinal epithelial cells” value [4] is given as “markedly decreased adhesion to intestinal epithelial cells”.

For `Nc1ncnc2c1ncn2[C@@H]1O[C@H](COP(=O)(O)O)[C@@H](O)[C@H]1O` [AMP], the “PA-I promoter activity / expression (fluorescence)” value (from here on “PA-I promoter activity / expression”) [5] was “no evident inducing effects”.

With `CCCCCCCCCCCCCC(=O)O[C@@H]1[C@@H](C)[C@@]2(O)[C@@H](C=C(CO)C[C@]3(O)C(=O)C(C)=C[C@@H]23)[C@@H]2C(C)(C)[C@]12OC(C)=O` [PMA] the “time for TEER increase to return to baseline” value (Endothelial cells [6]; 100 nM PMA, baseline 1250 ohm) was 8 h.

With TGF-β the “binding to P. aeruginosa cells / cell membranes (ELISA)” value [7] was “No binding was observed”.

In the case of IL-10: human cytokine, the “binding to P. aeruginosa cells / cell membranes (ELISA)” value [7] is reported as “No binding was observed”.

With `Oc1ccc2c3c1O[C@H]1c4[nH]c5c(c4C[C@@]4(O)[C@@H](C2)N(CC2CC2)CC[C@]314)C[C@@]1(O)[C@H]2Cc3ccc(O)c4c3[C@@]1(CCN2CC1CC1)[C@H]5O4` [NOR, nor-binaltorphimine] the “U-50,488-enhanced PCN production” value (P. aeruginosa PAO1) was “completely inhibited enhanced PCN production”.

In the case of `C[C@H](O)C(=O)O` [L-lactate], the “PA-I promoter activity / expression” value [5] is reported as “had no effect on PA-I promoter activity”.

In the case of IL-4: human cytokine, the “binding to P. aeruginosa cells / cell membranes (ELISA)” value [7] is reported as “No binding was observed”.

With `OC[C@H]1O[C@@H](n2cnc3c(O)ncnc32)[C@H](O)[C@@H]1O` [inosine] the “timing of PA-I induction compared to adenosine” value [5] was “induced PA-I expression at an earlier time point and at lower cell densities (OD) compared to adenosine” and the “concentration inducing PA-I expression relative to adenosine” value ([5]; less than adenosine) was 10 fold.

In the case of `NC[C@H](O)c1ccc(O)c(O)c1` [norepinephrine], the “PA-I expression in vitro” value [2] is reported as “did not change PA-I expression; also recorded: PA-I expression was not affected by this compound”.

With dynorphin the PCN production (P. aeruginosa PAO1) was “enhanced PCN production in a dose-dependent manner”.

With `Nc1ncnc2c1ncn2[C@@H]1O[C@H](COP(=O)(O)OP(=O)(O)O)[C@@H](O)[C@H]1O` [ADP] the “PA-I promoter activity / expression” value [5] was “no evident inducing effects”.

In the case of “recombinant human IFN-γ (rH IFN-γ) (from UniProt P01579 24-166) (ligand)”, the percent of bacterial cells that bound IFN-γ [8] is reported as 73%.

For “EGF: human cytokine tested for membrane binding”, the “binding to P. aeruginosa cells / cell membranes (ELISA)” value [7] was “No binding was observed”.

With `CCCCCCCCCCCCC/C=C/[C@@H](O)[C@@H](N)COP(=O)(O)O` [S1P, sphingosine 1-phosphate] the “time to maximum barrier enhancing effect” value ([9]; TEER) was 10 to 15 min, the “increase in resistance (maximum barrier enhancing effect)” value ([9]; TEER, human pulmonary microvessel EC) was 40% and the ERK phosphorylation [10] was “drastic increase in ERK phosphorylation”. For the same molecule, the “intracellular calcium on stimulation of ECs” value (HPAECs) was “induced intracellular calcium spikes”, the “effect of PMA pretreatment on the response to stimulation” value (Endothelial cells [6]; pretreated 100 nM PMA 24 hours, challenge 1 μM S1P or 8% HMW PEG) was “Blocked” and the “effect of PTX pretreatment on the response to stimulation” value (Endothelial cells [6]; pretreated 100 ng/ml PTX 4 hours, challenge 1 μM S1P or 8% HMW PEG) was “Blocked”. The “effect of S1P pretreatment on the response to stimulation” value (Endothelial cells [6]; pretreated 1 μM S1P 24 hours, challenge 1 μM S1P or 8% HMW PEG) was “No effect”, the “effect of FTY720 pretreatment on the response to stimulation” value (Endothelial cells [6]; pretreated 10 μM FTY720 24 hours, challenge 1 μM S1P or 8% HMW PEG) was “Blunted” and the “effect of FTY analog pretreatment on the response to stimulation” value (Endothelial cells [6]; pretreated 10 μM FTY analog 24 hours, challenge 1 μM S1P or 8% HMW PEG) was “Blunted”.

With `Nc1ncnc2c1ncn2[C@@H]1O[C@H](COP(=O)(O)OP(=O)(O)OP(=O)(O)O)[C@@H](O)[C@H]1O` [ATP] the “PA-I promoter activity / expression” value [5] was “no evident inducing effects”.

For “IFN-γ: recombinant human interferon gamma, immune cytokine”, the pyocyanin production (P. aeruginosa PAO1) was “increased pyocyanin production”, the “PA-I expression in vitro” value [2] was “induced PA-I expression” and the “concentration giving the greatest increase in PA-I protein” value [2] was 100 ng/mL. The “induction of PA-I mRNA (Northern blot)” value [2] was “Induction of PA-I mRNA was observed”, the “PA27853-induced decrease in Caco-2 TEER” value (Caco-2 cells; 5 hour time point, PA27853 alone decreased TEER by 60%) was “enhanced in the presence of IFN-γ” and the “Caco-2 TEER, IFN-γ alone” value (Caco-2 cells; without bacteria) was “Neither media nor IFN-γ alone altered TEER”. For the same molecule, the “bacterial cells that bound IFN-γ” value [7] was 73%±3.2%, the “binding to P. aeruginosa cells / cell membranes (ELISA)” value [7] was “avidly bound to whole fixed cells of P. aeruginosa in a dose-dependent manner” and the “binding to purified OprF” value (OprF) was “purified OprF directly binds human IFN-γ”. The “rhlI transcription (Northern blot)” value ([11]; PAO1) was “induced rhlI transcription”, the C4-HSL synthesis ([11]; PAO1, 100 ng/ml IFN-γ) was “C4-HSL synthesis was increased” and the “PA-I promoter activity / expression” value [5] was “Only IFN-γ induced PA-I promoter activity”.

For `CC(=O)N[C@H]1C(O)O[C@H](CO)[C@H](O)[C@@H]1O` (stereo partly drawn) [GalNAc, N-acetyl-D-galactosamine], the “adhesion of P. aeruginosa to intestinal epithelial cells” value [4] is given as “markedly decreased adhesion to intestinal epithelial cells”.

With thrombin the decrease in resistance ([9]; thrombin 1 U/ml, control cells) was “over 50%”, the “maximum decrease in resistance” value ([9]; thrombin 1 U/ml, control cells) was “approximately 1200 ohm” and the “intracellular calcium on stimulation of ECs” value (HPAECs) was “induced intracellular calcium spikes”.

For `COC(=O)c1ccccc1N` [MA, methyl anthranilate], the “ability of U-50,488 to enhance PCN production” value (P. aeruginosa PAO1) was “inhibited the ability of U-50,488 to enhance PCN production; also recorded: attenuated the ability of U-50,488 to enhance PCN production”.

In the case of `CCCC(=O)N[C@H]1CCOC1=O` [C4-HSL, C4-homoserine lactone], the “PCN production in mvfR mutants” value (P. aeruginosa PAO1) is reported as “none of these mutants produced PCN”, the “bacterial growth in TSB media” value (P. aeruginosa PAO1) is reported as “Neither compound had an effect on bacterial growth” and the “cell density at onset of PCN production” value (P. aeruginosa PAO1) is reported as “a shift in the production of PCN to lower cell densities”. The “PA-I expression in vitro” value [2] was “induced PA-I expression” and the “induction of PA-I mRNA (Northern blot)” value [2] was “Induction of PA-I mRNA was observed”.

With `C[C@@H](O)C(=O)O` [D-lactate] the “PA-I promoter activity / expression” value [5] was “had no effect on PA-I promoter activity”.

B1: PA-I: purified lectin/adhesin of P. aeruginosa, four 13 kDa subunits, binds D-galactose (protein, UniProt Q05097 2-122, looked up)
PA-I galactophilic lectin: AWKGEVLANNEAGQVTSIIYNPGDVITIVAAGWASYGPTQKWGPQGDREHPDQGLICHDAFCGALVMKIGNSGTIPVNTGLFRWVAPNNVQGAITLIYNDVPGTYGNNSGSFSVNIGKDQS
With B1 the “TEER of epithelial cells” value (MDCK monolayers; purified PA-I) was “decreased the TEER of epithelial cells to the same degree as P. aeruginosa” and the “increase in exotoxin A flux across MDCK cells” value (MDCK monolayers; when TEER decreased below 50% of control by pure PA-I protein) was “five-fold increase”.

B2: adenosine deaminase: enzyme added to deplete the media of adenosine (protein, UniProt P00813 2-363, looked up)
Adenosine deaminase: AQTPAFDKPKVELHVHLDGSIKPETILYYGRRRGIALPANTAEGLLNVIGMDKPLTLPDFLAKFDYYMPAIAGCREAIKRIAYEFVEMKAKEGVVYVEVRYSPHLLANSKVEPIPWNQAEGDLTPDEVVALVGQGLQEGERDFGVKARSILCCMRHQPNWSPKVVELCKKYQQQTVVAIDLAGDETIPGSSLLPGHVQAYQEAVKSGIHRTVHAGEVGSAEVVKEAVDILKTERLGHGYHTLEDQALYNRLRQENMHFEICPWSSYLTGAWKPDTEHAVIRLKNDQANYSLNTDDPLIFKSTLDTDYQMTKRDMGFTEEEFKRLNINAAKSSFLPEDEKRELLDLLYKAYGMPPSASAGQNL
With B2 the “PA-I expression after depletion of adenosine from HIF-1-α activated Caco-2 media” value ([5]; Caco-2) was “even greater increase in PA-I expression”.
